Assay results as given in patent US10695322B2 (priority 2016, dated 2020).
Like-named read-outs stand apart in the source and are kept apart here.

What was measured:
[1] = target: LdtMab1, wild-type (MAB_3165c, orthologue of LdtMt1) (Mycobacteroides abscessus, UniProt B1MDC1); experiment: biochemical; assay type: binding, Mycobacterium abscessus; details: Figure 6; ITC, wt, protein 150 μM, ligand 2 mM, pH 8.0, 24° C.
[2] = test system: LdtMab2; experiment: UPLC-MS analysis of protein-drug adducts, LdtMab2; assay type: binding, M. abscessus
[3] = target: T1, LdtMab1 (Mycobacteroides abscessus, UniProt B1MDC1); experiment: Isothermal titration calorimetry, binding to LdtMab1; details: ITC, 24° C., tris pH 8.0
T1 sequence (B1MDC1 entry or part of it): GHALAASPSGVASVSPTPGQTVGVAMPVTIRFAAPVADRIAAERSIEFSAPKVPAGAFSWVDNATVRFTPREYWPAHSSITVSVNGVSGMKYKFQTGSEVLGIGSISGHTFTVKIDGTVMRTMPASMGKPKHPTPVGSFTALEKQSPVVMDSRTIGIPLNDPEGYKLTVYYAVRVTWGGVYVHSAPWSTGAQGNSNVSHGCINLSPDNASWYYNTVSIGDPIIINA

[4] = target: LdtMab2 (Mycobacteroides abscessus, UniProt B1MMQ4); experiment: Isothermal titration calorimetry, binding to LdtMab2; parameters: species or system M. abscessus; details: ITC, 24° C., tris pH 8.0; read-out: Kd
Sequence of LdtMab2 (Mycobacteroides abscessus, UniProt B1MMQ4) (B1MMQ4 62-406 limits assumed): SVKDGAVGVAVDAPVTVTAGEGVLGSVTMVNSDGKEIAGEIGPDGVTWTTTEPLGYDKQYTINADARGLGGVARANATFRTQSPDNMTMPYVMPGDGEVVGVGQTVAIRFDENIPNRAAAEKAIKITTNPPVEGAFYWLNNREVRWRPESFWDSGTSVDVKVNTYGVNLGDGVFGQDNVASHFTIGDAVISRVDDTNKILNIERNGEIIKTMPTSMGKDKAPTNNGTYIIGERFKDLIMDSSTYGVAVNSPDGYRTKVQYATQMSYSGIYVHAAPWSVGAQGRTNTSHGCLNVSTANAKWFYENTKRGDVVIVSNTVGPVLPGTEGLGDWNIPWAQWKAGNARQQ

[5] = target: T2, LdtMt1 (Mycobacterium tuberculosis, UniProt O53638); assay type: binding, M. tuberculosis
T2 sequence (O53638 32-251 limits assumed): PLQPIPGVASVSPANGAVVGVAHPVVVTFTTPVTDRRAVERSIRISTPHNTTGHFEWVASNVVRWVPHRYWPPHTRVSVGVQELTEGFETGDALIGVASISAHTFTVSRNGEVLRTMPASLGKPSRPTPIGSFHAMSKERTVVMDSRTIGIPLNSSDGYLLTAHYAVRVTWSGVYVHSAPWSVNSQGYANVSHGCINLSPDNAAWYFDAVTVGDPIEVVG

[6] = target: T3, LdtMt2 (Mycobacterium tuberculosis, UniProt I6Y9J2); experiment: biochemical; parameters: species or system M. tuberculosis
T3 sequence (I6Y9J2 56-408 limits assumed): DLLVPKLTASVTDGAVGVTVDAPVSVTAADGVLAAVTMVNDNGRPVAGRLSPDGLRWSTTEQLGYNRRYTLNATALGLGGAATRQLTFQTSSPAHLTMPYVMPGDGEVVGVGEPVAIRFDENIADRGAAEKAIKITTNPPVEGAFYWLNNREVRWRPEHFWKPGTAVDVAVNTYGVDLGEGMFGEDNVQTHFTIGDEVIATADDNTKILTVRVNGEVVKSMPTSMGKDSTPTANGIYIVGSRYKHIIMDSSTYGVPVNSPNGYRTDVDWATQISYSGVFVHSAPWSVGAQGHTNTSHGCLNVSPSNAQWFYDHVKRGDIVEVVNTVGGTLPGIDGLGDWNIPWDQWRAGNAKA

[7] = test system: LdtKp; experiment: UPLC-MS analysis of protein-drug adducts, LdtKp; assay type: binding, K. pneumoniae
[8] = test system: LdtCl; experiment: UPLC-MS analysis of protein-drug adducts, LdtCl; assay type: binding, E. cloacae
Description: Ultra-performance liquid chromatography-high resolution mass spectrometry (UPLC-MS) with a Waters Acquity H-Class system utilizing a Waters Acquity BEH-300 UPLC column packed with a C4 stationary phase (2.1×50 mm, 1.7 μm) in conjunction with HRMS analysis by a Waters Xero-G2 quadropole-TOF electrospray mass spectrometer was used to detect and analyze protein-drug adducts. Each enzyme (2 μM) in 25 mM Tris buffer, pH 8, was incubated in the absence or presence of drugs (50 μM) at room temperature for 5 hours. Trifluoroacetic acid (0.1% final) was used to quench the reactions, samples were filtered through a 0.22 um filter and analyzed using UPLC-MS as follows: Mobile phase: 0-1 min 90% water+10% ACN+0.1% formic acid, 1-7.5 min gradient up to 20% water+80% ACN+0.1% formic acid, 7.5-8.4 min 20% water+80% ACN+0.1% formic acid, 8.4-8.5 min gradient up to 90% water+10% ACN+0.1% formic acid, 8.5-10 min 90% water+10% ACN+0.1% formic acid. Flow rate=0.3 mL min^−1. T=60° C.

[9] = target: T3, LdtMt2; assay type: binding, M. tuberculosis; details: for mass of stable adduct with wild-type LdtMt2: UPLC-MS
[10] = target: T1, LdtMab1; experiment: UPLC-MS analysis of protein-drug adducts, LdtMab1; assay type: binding, M. abscessus
[11] = test system: M. tuberculosis; assay type: in vivo, BALB/c mice; details: for gross pathology of lungs (tuberculous lesions): mouse, in vivo
[12] = target: T2, LdtMt1; experiment: biochemical; assay type: binding, M. tuberculosis; details: ITC, 24° C., tris pH 8.0; single binding modality
[13] = target: T4, human DHP-1 (Homo sapiens, UniProt P16444); details: cited from earlier work
T4 sequence (P16444 17-385): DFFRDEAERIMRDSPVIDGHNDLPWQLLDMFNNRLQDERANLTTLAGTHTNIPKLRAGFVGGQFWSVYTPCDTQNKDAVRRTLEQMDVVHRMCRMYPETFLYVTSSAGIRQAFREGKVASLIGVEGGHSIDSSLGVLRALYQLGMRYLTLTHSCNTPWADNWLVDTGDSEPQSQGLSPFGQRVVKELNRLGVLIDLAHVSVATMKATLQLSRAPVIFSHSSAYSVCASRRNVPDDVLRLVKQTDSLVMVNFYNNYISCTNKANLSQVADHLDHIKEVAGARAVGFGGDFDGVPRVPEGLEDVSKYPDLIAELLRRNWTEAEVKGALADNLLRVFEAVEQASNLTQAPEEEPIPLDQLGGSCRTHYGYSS

[14] = target: LdtMab2, wild-type (MAB_1530, orthologue of LdtMt2; fragment without putative transmembrane domain) (Mycobacteroides abscessus, UniProt B1MMQ4); experiment: biochemical; assay type: binding, Mycobacterium abscessus; details: Figure 6; ITC, wt, protein 150 μM, ligand 2 mM, pH 8.0, 24° C.
Sequence of LdtMab2, wild-type (MAB_1530, orthologue of LdtMt2; fragment without putative transmembrane domain) (B1MMQ4 32-406): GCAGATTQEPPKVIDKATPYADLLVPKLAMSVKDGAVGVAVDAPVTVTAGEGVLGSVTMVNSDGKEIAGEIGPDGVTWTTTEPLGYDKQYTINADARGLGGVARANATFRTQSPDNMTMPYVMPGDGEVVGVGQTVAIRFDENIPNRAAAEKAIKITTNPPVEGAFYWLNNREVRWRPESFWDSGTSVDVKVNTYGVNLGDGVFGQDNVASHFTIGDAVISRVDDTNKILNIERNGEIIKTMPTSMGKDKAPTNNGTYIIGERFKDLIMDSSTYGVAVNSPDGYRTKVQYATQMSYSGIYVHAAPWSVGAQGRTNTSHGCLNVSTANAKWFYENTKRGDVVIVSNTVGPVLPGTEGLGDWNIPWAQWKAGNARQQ

[15] = target: T5, LdtMt2, wild-type (L,D-transpeptidase of M. tuberculosis; fragment without N-terminal transmembrane domain, N-terminal His6, TEV-cleavable) (Mycobacterium tuberculosis, UniProt I6Y9J2); experiment: biochemical; assay type: binding
T5 construct: Fragments excluding the putative transmembrane domain were cloned, expressed and purified; His6 (TEV-cleavable) (N); made in house; host or cells: E. coli BL21(DE3)
T5 sequence (I6Y9J2 56-408 limits assumed): as the sequence (I6Y9J2 56-408 limits assumed) above

[16] = test system: M. tuberculosis; details: oral gavage; recent report; cited from earlier work
[17] = test system: M. tuberculosis; details: mouse, in vivo; cited from earlier work
[18] = competition: equimolar mixture of doripenem, biapenem, faropenem and tebipenem, within one minute
[19] = equimolar mixture of amoxicillin, cephalothin, aztreonam and faropenem
[20] = 10 μM LdtMt2, MES pH 6.5, 10° C.

Sequence of LdtMab1, wild-type (MAB_3165c, orthologue of LdtMt1) (B1MDC1 21-248): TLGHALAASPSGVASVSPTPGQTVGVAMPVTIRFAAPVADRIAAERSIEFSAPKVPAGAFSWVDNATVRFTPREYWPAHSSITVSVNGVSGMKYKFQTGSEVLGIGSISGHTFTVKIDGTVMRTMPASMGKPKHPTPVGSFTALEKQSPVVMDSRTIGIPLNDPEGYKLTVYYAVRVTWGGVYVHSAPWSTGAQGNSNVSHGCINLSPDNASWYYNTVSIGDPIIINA

SMILES: CC1(C)S[C@@H]2[C@H](NC(=O)[C@H](N)c3ccc(O)cc3)C(=O)N2[C@H]1C(=O)O [Amoxicillin]
- Kd [1]: 1290 µM

SMILES: C[C@@H](O)[C@H]1C(=O)N2C(C(=O)O)=C([C@H]3CCCO3)S[C@H]12 [faropenem]
- proteins reacted exclusively with the drug [2, 18]: 100%
- adducts detected in competition [2, 19]: faropenem adducts gave the only masses we could detect
- Kd [3]: 0.16 µM
- Kd [4]: 6.25 µM
- adducts detected in competition [5]: faropenem adducts gave the only masses we could detect
- proteins reacted exclusively with the drug [5]: 100%
- mass of adduct with LdtMt1 ([5]; covalently attached to C226): 86 Da
- Kapp [6, 20]: 49.2 ± 11.9 µM
- adducts detected in competition [7]: faropenem adducts gave the only masses we could detect
- proteins reacted exclusively with the drug [7]: 100%
- proteins reacted exclusively with the drug [8, 18]: 100%
- adducts detected in competition [8, 19]: faropenem adducts gave the only masses we could detect
- adducts detected in competition [9]: faropenem adducts gave the only masses we could detect
- proteins reacted exclusively with the drug [9]: 100%
- mass of stable adduct with wild-type LdtMt2 [9]: +86 Da
- adducts detected in competition [10]: faropenem adducts gave the only masses we could detect
- proteins reacted exclusively with the drug [10]: 100%
- gross pathology of lungs (tuberculous lesions) [11]: developed tuberculous lesions in the lungs but their pathology and the bacterial burden were lower compared to untreated mice
- M. tuberculosis burden in the lungs ([11]; three weeks of treatment): lower compared to untreated mice
- survival / overall health of infected mice ([11]; used alone): prolonged the life of mice
- Kd [12]: 3.98 µM

SMILES: C[C@@H](O)[C@H]1C(=O)N2C(C(=O)[O-])=C(SC3Cn4cnc[n+]4C3)[C@H](C)[C@H]12 (stereo partly shown) [biapenem]
- metabolism by human DHP-1 [13]: not readily metabolized
- Kapp [6, 20]: 15.3 ± 2.5 µM
- kinact ([6]; 10 μM LdtMt2, MES pH 6.5, 10° C., read-out: kinact (converted)): 0.06 s⁻¹
- kinact/KI ([6]; read-out: kinact/Kapp ratio): 3830 M⁻¹ s⁻¹
- mass of stable adduct with wild-type LdtMt2 [9]: +138 Da
- gross pathology of lungs (tuberculous lesions) [11]: no tuberculous lesions
- M. tuberculosis burden in the lungs ([11]; three weeks of treatment): no less effective than rifampicin
- bactericidal activity in vivo ([11]; three weeks of treatment): lacked bactericidal activity

SMILES: C[C@@H](O)[C@H]1C(=O)N2C(C(=O)O)=C(SC3CN(C4=NCCS4)C3)[C@H](C)[C@H]12 [tebipenem]
- Kapp [6, 20]: 38.4 ± 9.7 µM
- Kd [14]: 6.1 µM
- Kd [1]: 0.82 µM

SMILES: CC(=O)OCC1=C(C(=O)O)N2C(=O)[C@@H](NC(=O)Cc3cccs3)[C@H]2SC1 [Cephalothin]
- Kd [1]: 30.3 µM
- Kd [15]: 200 µM

SMILES: Cc1oc(=O)oc1COC(=O)C1=C([C@H]2CCCO2)S[C@@H]2[C@@H]([C@@H](C)O)C(=O)N12 [faropenem medoxomil]
- M. tuberculosis burden in the lungs [16]: ineffective

SMILES: C[C@@H](O)[C@H]1C(=O)N2C(C(=O)O)=C(S[C@@H]3CN[C@H](C(=O)N(C)C)C3)[C@H](C)[C@H]12 [meropenem]
- activity in macrophages and mice infected with M. tuberculosis [17]: limited activity
